Calls of active or inactive are those of the source. How the calls were made is not given here. Peptide text beside a SMILES is read from it. * marks the point of attachment. CH2Cl = ClC*
How the values were obtained:
[1] = inhibitors of PAF-induced NFkB signaling in CF airway cells, dose response, cell-based, uHTS hits, panel, cytotoxicity readout (AID 624344); details: CF bronchial epithelial cells, PAF-induced NFkB reporter inhibition; with PAF, mean of runs
Cytotoxicity = test: as above; details: CF bronchial epithelial cells, mean of runs

SMILES | IC50 [1] | IC50 (Cytotoxicity)
COc1ccc(C(c2nnnn2-c2ccc(OC)cc2)N2CCC(n3c(=O)[nH]c4ccccc43)CC2)cc1 (configuration not stated) | 5.8 µM | 11.7 µM
CCCCNc1c(-c2cccc(-c3ccc(OC)cc3)c2)nc2ccc(C)cn12 | 4.98 µM | 1.72 µM
NC(N)=NN=C(c1ccc(F)cc1)c1ccc(C(F)(F)F)cc1 | 5.87 µM | 25.3 µM
Cc1cccc(CNc2ncnc3ccc(-c4ccoc4)cc23)c1 | < 0.15 µM | 6.04 µM
COc1cc(CCc2ccccc2)c(C(=O)O)c(O)c1C/C=C(/C)CCC=C(C)C | 6.26 µM | 14.7 µM
Cc1ccc(NC(=O)Nc2nnc(-c3ccncc3)s2)cc1 | 5.53 µM | 11 µM
COc1ccc(-n2nnnc2C(c2cccs2)N2CCC(n3c(=O)[nH]c4ccccc43)CC2)cc1 (configuration not stated) | 5.05 µM | 14.2 µM
C/C=C/COC(=O)c1[nH]c2c(c1C)C(=O)CC(c1ccco1)C2 (configuration not stated) | inactive | 52.8 µM (inactive)
CCC(C)Oc1cc(-c2ccnc(Nc3cccc(Cl)c3)n2)ccn1 (configuration not stated) | 3.28 µM | 5.62 µM
C=CC[C@@H](CC(=O)N[C@H](CO)Cc1ccccc1)C(=O)NC[C@H](OC(=O)[C@@H](CC=C)Cc1ccc(F)cc1)c1ccccc1 | 5.6 µM | 8.91 µM
CCOC(=O)c1c(C)c2c(=O)[nH]cnc2n1-c1ccccc1 | 1.89 µM | 13.9 µM
Cc1ccc(S(=O)(=O)n2cc(-c3ccccc3)c3ccccc32)cc1 | 5.53 µM | > 79 µM (inactive)
OCCN1CCN(c2ncnc3ccc(Br)cc23)CC1 | 2.44 µM | 55.7 µM (inactive)
CC(C)c1nc(NCCO)c(C#N)c2c1CCCC2 | 5.77 µM | > 79 µM (inactive)
Nc1nccc(-c2ccc(-n3cnc4ccccc43)cc2)n1 | 2.13 µM | 49.1 µM
NC(=O)c1c(Br)n(C2OC(CO)C(O)C2O)c2ncnc(N)c12 (configuration not stated) | 2.03 µM | 3.07 µM
FC(F)Sc1ccc(NC(=S)NCC2CCCCC2)cc1 | 5.53 µM | 7.18 µM
CCOc1ccccc1N1CCN(C(=O)c2cc(-c3cc(OC)ccc3OC)nc3ccccc23)CC1 | 4.12 µM | 12 µM
CC1(Cc2ccc(Cl)cc2)C(=O)Nc2ccc(-c3cccnc3)cc21 (configuration not stated) | 1.28 µM | 26.6 µM
O=C1C(=Cc2ccccc2[N+](=O)[O-])Cc2ccccc21 | 6.36 µM | 8.65 µM
CNc1ccc2ncc(-c3ccc(OC)c(OC)c3)n2n1 | 0.535 µM | 15.8 µM

SMILES | IC50 [1] | IC50 (Cytotoxicity)
CCOC(=O)c1c(C)cc2c(CO)n[nH]c(=O)c2c1C | 6.83 µM | 62.8 µM (inactive)
COc1ccc(-c2csc(/C(C#N)=C\c3ccc(O)c([N+](=O)[O-])c3)n2)cc1OC | 2.82 µM | 45.9 µM
C=CC[C@@H](CC/C=C/C=C/CC/C=C\[C@@H]1CSC([C@@H]2C[C@@H]2C)=N1)OC | inactive | 63 µM (inactive)
COc1cccc(-c2ccc3ncnc(NCc4cccc(C)c4)c3c2)c1 | 5.66 µM | 13 µM
CC(=O)NC(CC(C)C)C(=O)NC(Cc1ccccc1)C(=O)CCl (stereo not drawn) (Ac-Leu-Phe-CH2Cl; configuration not given here) | 2.83 µM | 17.6 µM
Cc1cnc(NC(=O)C2CC(=O)N(c3cccc(Cl)c3)C2)s1 (configuration not stated) | 3.18 µM | 29.1 µM
c1nc(NCc2ccc3c(c2)OCO3)c2cc(-c3ccoc3)ccc2n1 | 0.34 µM | 5.93 µM
CCn1c(Oc2ccccc2F)nc2c1c(=O)n(C)c(=O)n2C | 3.57 µM | > 79 µM (inactive)
CC(C)C[C@H]1CNC(=S)N1C[C@H]1CCCN1C[C@H](Cc1ccc(O)cc1)N1C[C@H](Cc2ccc(O)cc2)N(CC2CCCCC2)C1=S | inactive | 51.2 µM (inactive)
Cc1cc(C)c(C#N)c(SCC(=O)c2ccc(Cl)cc2Cl)n1 | 6.02 µM | 14.8 µM
CCOC(=O)COc1ccc2ccccc2c1/C=C/[N+](=O)[O-] | 8.1 µM | 4.6 µM
Cc1ccc(S(=O)(=O)Nc2nc3ccccc3nc2Nc2cccc(S(=O)(=O)N3CCCC3)c2)cc1 | 3.57 µM | 41.3 µM
C[C@@H]1CN([C@H](C)CO)C(=O)c2cc(NC(=O)Nc3ccc(C(F)(F)F)cc3)ccc2O[C@H]1CN(C)S(=O)(=O)c1cccs1 | 5.41 µM | 54.9 µM (inactive)
COc1ccc(COc2cc(-c3cccc(OC)c3)nc3ccc(NC(=O)c4cccnc4)cc23)cc1 | 4.27 µM | 11.5 µM
O=S(=O)(Nc1ccc(Cl)cc1NS(=O)(=O)c1ccccc1)c1ccccc1 | 10 µM | 40.3 µM
COc1ccc(C2=Nn3c(nnc3-c3ccccc3OC)SC2)cc1OC1CCCC1 | 0.229 µM | > 79 µM (inactive)
COc1cc(C2c3cc4c(cc3C(O)C3COC(=O)C23)OCO4)cc(OC)c1OC (configuration not stated) | > 79 µM (inactive) | > 79 µM (inactive)
CC(C)(C)c1nc(NC(=O)Nc2ccccc2)sc1Br | 6.59 µM | 12.6 µM
CCS(=O)(=O)c1ncc(Cl)c(C(=O)Nc2ccccc2OC)n1 | 1.82 µM | 7.42 µM
Cc1cccc(CS(=O)(=O)c2ncc(Cl)c(C(=O)NCc3ccccc3)n2)c1 | 2.47 µM | 2.27 µM
COc1ccc(-c2cnc3c(NC=O)cc(-c4ccccc4OC)cn23)cc1OC | 6.5 µM | 13.7 µM

SMILES | IC50 [1] | IC50 (Cytotoxicity)
Cc1nnc(Sc2nc3ccccc3o2)c2ccccc12 | 6.57 µM | 5.61 µM
Cc1cccc(C(=O)N2[C@@H](C(C)C)COc3cc(Br)ccc3S2(=O)=O)c1 | 11.1 µM | 37.8 µM
CCOC(=O)[C@@H]1[C@H]2COc3ccc(Br)cc3[C@H]2N2C(=O)N(c3ccc(C)cc3)C(=O)[C@]12C | > 79 µM (inactive) | > 79 µM (inactive)
COc1ccc(C(C(=O)NCC2CCCO2)N(Cc2cccs2)C(=O)c2snc(C(N)=O)c2N)cc1 (configuration not stated) | 3.11 µM | 44.2 µM
CCOCC(=O)NC1CCc2cc(OC(=O)COCC)c(OC)c(OC)c2-c2ccc(SC)c(=O)cc21 (configuration not stated) | inactive | 44.5 µM
Cc1cc(C)c2nc(C(F)(F)F)c(C#N)c(N)c2c1 | 0.827 µM | 24.6 µM
CN1CCN(c2ncnc3scc(-c4ccccc4Cl)c23)CC1 | 3.89 µM | 57.2 µM (inactive)
Nc1ncnc(Sc2ccc(Cl)cc2)c1[N+](=O)[O-] | 4.13 µM | 11.6 µM
COc1ccc(CNc2nn3c(-c4cccc(C(=O)N(C)C)c4)cnc3s2)cc1 | 2.46 µM | 33.6 µM
COc1ccc(CNC(=O)C(c2ccc(O)cc2)N(Cc2ccco2)C(=O)c2snc(C(N)=O)c2N)cc1 (configuration not stated) | 4.58 µM | 5 µM
CC(C)n1c(SCc2ccccc2F)nc2c1c(=O)n(C)c(=O)n2C | 7.01 µM | > 79 µM (inactive)
COc1ccc(NC(=O)Nc2nnc(-c3ccncc3)s2)cc1 | 5.6 µM | 64.7 µM (inactive)
CC(C)(CO)CNc1ccn2nccc2n1 | 5.29 µM | 76.7 µM (inactive)
COc1ccc(C2=Nn3c(nnc3-c3ccncc3)SC2)cc1 | 2.72 µM | 40 µM
COc1cccc(C(=O)N2C(C(C)C)COc3cc(Br)ccc3S2(=O)=O)c1 (configuration not stated) | 12 µM | 24.7 µM
CC(=O)Nc1ccc(NC(=O)C(C)OC(=O)c2ccccc2C(=O)c2ccc(Cl)c([N+](=O)[O-])c2)cc1 (configuration not stated) | 15.3 µM | 45.2 µM
COc1ccc(C2=Nn3c(nnc3-c3ccccc3OC)SC2)cc1OC1CCOC1 (configuration not stated) | 4.85 µM | > 79 µM (inactive)
Cc1[nH]nc2c1-c1nc3ccccc3nc1C(C)(C)C2 | 10.4 µM | > 79 µM (inactive)
Cc1ccc2nc(SCC(=O)Nc3cc(C(F)(F)F)ccc3N3CCOCC3)[nH]c2c1 | inactive | 60.8 µM (inactive)
CC(C)Cc1nc2oc3c(NCC4CCCO4)ncnc3c2c2c1CCC2 (configuration not stated) | 2.87 µM | 3.76 µM
Cc1ccc(C(C(=O)NCc2ccccc2)N(Cc2cccs2)C(=O)c2ccc3c(c2)OCCO3)cc1 (configuration not stated) | 3.04 µM | 3.48 µM

SMILES | IC50 [1] | IC50 (Cytotoxicity)
CCOc1cc2c(cc1O)C(=NO)CC1C2CCC2(C)C(O)CCC12 (configuration not stated) | 17.5 µM | 31 µM
CC(C)[C@H](CO)Nc1nc(NCc2ccc(S(N)(=O)=O)cc2)c2ncn(C(C)C)c2n1 | 1.67 µM | 11.9 µM
COc1ccccc1NS(=O)(=O)c1ccc(-c2cnc(C3CC3)o2)cc1 | 16.7 µM | > 79 µM (inactive)
CCOC(=O)C1=C(C)Nc2ccccc2N=C1NC(=O)c1oc2ccccc2c1COC | 4.25 µM | 30.1 µM
CC(C)(C)OC(=O)NCC(=O)Oc1cc2oc(=O)cc(-c3ccccc3)c2cc1Cl | 1.2 µM | 15.3 µM
CC1Cc2ccccc2N1c1ncnc2nc[nH]c12 (configuration not stated) | 2.46 µM | 36.2 µM
COc1cccc(NC(=O)Nc2nnc(CC(=O)Nc3ccccc3)s2)c1 | 4.89 µM | 55.8 µM (inactive)
CCOC(=O)C1=C(CC)Nc2ccccc2N=C1NC(=O)Nc1ccc(Cl)c(Cl)c1 | 2.74 µM | 6.06 µM
COc1ccccc1-n1nnnc1S(=O)(=O)Cc1ccc(Cl)cc1 | 1.28 µM | 2.44 µM
NC(=S)N1OC[C@@H]2COc3ccc4ccccc4c3[C@@H]21 | 4.75 µM | 31.2 µM
COc1ccc(Nc2nccc(-c3cccc(N)c3)n2)cc1 | 4.14 µM | 42.6 µM
Cc1ccc(NC(=O)Nc2nnc(-c3ccncc3)s2)cc1C | 3.46 µM | 9.39 µM
O=C(CCC1COc2ccccc2O1)Nc1ccc(Cl)cn1 (configuration not stated) | 10.2 µM | 50.9 µM (inactive)
Cc1ccc(NS(=O)(=O)c2ccc(-c3cnc(C4CC4)o3)cc2)c(C)c1 | 14.2 µM | 32.5 µM
O=C(c1cncc(Br)c1)N1CCc2ccccc2C1 | 8.73 µM | > 79 µM (inactive)
CCN1CCN(Cc2ccc(NC(=O)c3ccc(C)c(NC(=O)c4ccc5n[nH]nc5c4)c3)cc2C(F)(F)F)CC1 | 2.58 µM | 33.3 µM
O=C(Nc1cccnc1)c1sc2cccc(F)c2c1Cl | 12.1 µM | 43 µM
Cc1ccc(NC(=O)CSc2ncnc3ccccc23)cc1S(=O)(=O)N1CCOCC1 | 4.14 µM | 34.6 µM

— PubChem BioAssay AID624344 (Sanford-Burnham Center for Chemical Genomics, 2012)
